Converted amounts (≈) assume the structure as drawn. “And” between values parts separate entries of the source, which are not always exact repeats. Equal values may be shown once.
Legend:
[1] = tested on: gene expression in MCF-7 human breast cancer cells; assay: RT-qPCR gene expression in MCF-7 cells; assay type: cell-based
Protocol: (§1) Total mRNA was isolated and extracted by Trizol reagent as described in an earlier method. RevertAid First Strand cDNA synthesis kit (Thermo Fisher Scientific, Waltham, MA, USA) was used to synthesize cDNA in a total reaction volume of 20 μL containing oligo-dT primers, RiboLock RNase inhibitor, and reverse transcriptase. Gene-specific primers were used to amplify cDNAs in RT-qPCR machine (Applied Biosystems, Waltham, MA, USA).

[2] = tested on: gene expression in B16-F0 melanoma cells; assay: RT-qPCR gene expression in B16-F0 cells; assay type: cell-based, Mouse
Protocol: as §1

[3] = MTT cytotoxicity test on MCF-10A cells; assay type: cell-based, Human; details: human, MCF-10A breast epithelial cells
Protocol: (§2) The in vitro anticancer activities of the synthesized compounds were conducted using different cancerous and non-cancerous cell lines viz B16-F0 (Mouse melanoma), mouse Ehrlich Ascites Carcinoma (EAC), MCF-7 (Human breast cancer), MCF-10A (Human breast epithelial cells), and NIH/3T3 (Mouse fibroblast cells). All cell lines were procured from the National Centre for Cell Science, Pune, India. The procured cells were cultured in a six-well culture plate with Dulbecco’s Modified Eagle’s Medium (DMEM) supplemented with 10% fetal bovine serum in a humid CO2 incubator with 5% carbon dioxide at 37 °C.
(§3) The anti-cancer effect and cytotoxicity of both 3-MBTSc and 4-NBTSc compounds were evaluated against different cancerous (MCF-7, EAC, B16-F0 cells) and noncancerous cells (MCF-10A, NIH-3T3 cells) using MTT test. In brief, the stock solutions of both the tested compounds were prepared by dissolving 1 mg of each compound in 1 mL of DMSO separately. Then, four different concentrations (5, 10, 12, and 20 µg/mL) of both compounds were used during the test along with the negative control. Also, 10 μg/mL of doxorubicin (Dox) was used as the positive control during the experiment. Both untreated and treated cells were incubated for next 24 and 48 h. Then, all the steps during the whole experiment were carried out by our earlier reported procedure. Later, the absorbance values were measured by an ELISA reader (Biorad, Hercules, CA, USA) at 570 nm wavelength using secondary wavelength as a reference at 620 nm and the percentages of cell viability was calculated using the following formula [59, 60, 61]. Cell viability (%)= Mean absorbance of treated cells/Mean absorbance of untreated cells × 100

[4] = tested on: MCF-10A (Human breast epithelial cells); assay: MTT cytotoxicity test on MCF-10A cells; assay type: cell-based; details: 48 h
Protocol: as §2, §3

[5] = tested on: MCF-7 (Human breast cancer); assay: MTT test on MCF-7 cells; assay type: cell-based; details: MCF7, till 48 h
Protocol: as §2, §3
(§4) Based on the cell viability data, the IC50 values of both compounds were calculated on different cancer cells by plotting their corresponding dose-responsive graphs.
(§5) The obtained data were statistically analyzed. The descriptive analysis was done and the IC50 values were calculated by fitting the sigmoidal dose responsive graph using GraphPad Prism (GraphPad Software, Inc., La Jolla, CA, USA). […]

B16-F0 (Mouse melanoma) = assay: MTT test on B16-F0 cells; assay type: cell-based; details: Mus musculus, B16F0; B16-F0 cells, MTT, till 48 h
Protocol: as §2, §3, §4, §5

[6] = MCF-7 cells treated, GAPDH housekeeping gene
[7] = MCF-7 cells, difference of RQ values
[8] = B16-F0 cells treated, GAPDH housekeeping gene
[9] = B16-F0 cells, difference of RQ values

IC50 [5]: 7.102 ± 0.01 µg/mL (≈ 31.7 µM)
IC50 (B16-F0 (Mouse melanoma)): 7.129 ± 0.012 µg/mL (≈ 31.8 µM)
Compound: NC(=S)N[N-][CH+]c1ccc([N+](=O)[O-])cc1 [4-NBTSc, 4-Nitrobenzaldehyde thiosemicarbazone]
BCl2 Treated (RQ value) [1, 6]: 3.11 ± 0.01
BRCA1 Treated (RQ value) [1, 6]: 2.86 ± 0.455
BRCA2 Treated (RQ value) [1, 6]: 4.13 ± 0.02
Bax Treated (RQ value) [1, 6]: 1.825 ± 0.025
Caspase-3 Treated (RQ value) [1, 6]: 1.85 ± 0.04
Dmp1 Treated (RQ value) [1, 6]: 2.19 ± 0.02
ER Treated (RQ value) [1, 6]: 2.14 ± 0.03
Hdm2 Treated (RQ value) [1, 6]: 3.92 ± 0.045
Myc Treated (RQ value) [1, 6]: 2.35 ± 0.025
PKC Treated (RQ value) [1, 6]: 6.09 ± 0.02
PR Treated (RQ value) [1, 6]: 1.15 ± 0.02
PTEN Treated (RQ value) [1, 6]: 5.09 ± 0.02
RAS Treated (RQ value) [1, 6]: 3.94 ± 0.02
p19 Arf Treated (RQ value) [1, 6]: 0.995 ± 0.025
p21 Treated (RQ value) [1, 6]: 4.12 ± 1.51
p53 Treated (RQ value) [1, 6]: 4.185 ± 0.025
pRB Treated (RQ value) [1, 6]: 3.81 ± 0.02
BCl2 Fold Change (MCF 7 treated-MCF 7 untreated) [1, 7]: 1.02 fold
BRCA1 Fold Change (MCF 7 treated-MCF 7 untreated) [1, 7]: 1.06 fold
BRCA2 Fold Change (MCF 7 treated-MCF 7 untreated) [1, 7]: 2.19 fold
Bax Fold Change (MCF 7 treated-MCF 7 untreated) [1, 7]: 1.1 fold
Caspase-3 Fold Change (MCF 7 treated-MCF 7 untreated) [1, 7]: 1.25 fold
Dmp1 Fold Change (MCF 7 treated-MCF 7 untreated) [1, 7]: -0.3 fold
ER Fold Change (MCF 7 treated-MCF 7 untreated) [1, 7]: -2.7 fold
Hdm2 Fold Change (MCF 7 treated-MCF 7 untreated) [1, 7]: -3.32 fold
Myc Fold Change (MCF 7 treated-MCF 7 untreated) [1, 7]: -5.1 fold
PR Fold Change (MCF 7 treated-MCF 7 untreated) [1, 7]: -0.05 fold
PTEN Fold Change (MCF 7 treated-MCF 7 untreated) [1, 7]: 2.945 fold and 2.95 fold
p19 Arf Fold Change (MCF 7 treated-MCF 7 untreated) [1, 7]: -0.34 fold
p21 Fold Change (MCF 7 treated-MCF 7 untreated) [1, 7]: 1.93 fold
p53 Fold Change (MCF 7 treated-MCF 7 untreated) [1, 7]: 2.025 fold
pRB Fold Change (MCF 7 treated-MCF 7 untreated) [1, 7]: 2.21 fold
BCl2 Treated (RQ value) [2, 8]: 2.36 ± 0.028
BRCA1 Treated (RQ value) [2, 8]: 1.94 ± 0.028
Bax Treated (RQ value) [2, 8]: 6.09 ± 0.028
Caspase-3 Treated (RQ value) [2, 8]: 5.215 ± 0.021
Dmp1 Treated (RQ value) [2, 8]: 7.19 ± 0.028
Fos Treated (RQ value) [2, 8]: 2.905 ± 0.021
MTS 1 Treated (RQ value) [2, 8]: 4.865 ± 0.021
Mdm2 Treated (RQ value) [2, 8]: 6.1 ± 0.014
PKC Treated (RQ value) [2, 8]: 7.14 ± 0.028
PTEN Treated (RQ value) [2, 8]: 6.97 ± 0.014
RAS Treated (RQ value) [2, 8]: 4.145 ± 0.035
p19 Arf Treated (RQ value) [2, 8]: 3.145 ± 0.035
p21 Treated (RQ value) [2, 8]: 4.12 ± 0.014
p53 Treated (RQ value) [2, 8]: 3.185 ± 0.021
pRB Treated (RQ value) [2, 8]: 1.06 ± 0.085
BCl2 Fold Change (B16-F0 treated-B16-F0 untreated) [2, 9]: 0.27 fold
BRCA1 Fold Change (B16-F0 treated-B16-F0 untreated) [2, 9]: 0.14 fold
Bax Fold Change (B16-F0 treated-B16-F0 untreated) [2, 9]: 3.355 fold and 3.35 fold
Caspase-3 Fold Change (B16-F0 treated-B16-F0 untreated) [2, 9]: 2.615 fold
Dmp1 Fold Change (B16-F0 treated-B16-F0 untreated) [2, 9]: 4.7 fold
MTS 1 Fold Change (B16-F0 treated-B16-F0 untreated) [2, 9]: 2.93 fold
Mdm2 Fold Change (B16-F0 treated-B16-F0 untreated) [2, 9]: -1.14 fold
PTEN Fold Change (B16-F0 treated-B16-F0 untreated) [2, 9]: 4.825 fold and 4.82 fold
p19 Arf Fold Change (B16-F0 treated-B16-F0 untreated) [2, 9]: 1.81 fold
p21 Fold Change (B16-F0 treated-B16-F0 untreated) [2, 9]: 1.93 fold
p53 Fold Change (B16-F0 treated-B16-F0 untreated) [2, 9]: 1.025 fold
pRB Fold Change (B16-F0 treated-B16-F0 untreated) [2, 9]: -0.54 fold
viability at 48 h [3]: > 80%
toxicity [4]: less than 20%

Reference: article PMC8533299, “Synthesis, In Silico Study, and Anti-Cancer Activity of Thiosemicarbazone Derivatives” (Biomedicines, 2021)
